ChEMBL document CHEMBL2321822, “Synthesis and biological evaluation of 1-(6-methylpyridin-2-yl)-5-(quinoxalin-6-yl)-1,2,3-triazoles as transforming growth factor-β type 1 receptor kinase inhibitors” (Bioorg Med Chem Lett, 2013)

Assays:
[1] = target: T1, TGF-beta receptor type-1 (Homo sapiens) (UniProt P36897); experiment: Inhibition of human ALK5 at 10 uM in presence of 1 microM ATP relative to control
T1 sequence (whole entry): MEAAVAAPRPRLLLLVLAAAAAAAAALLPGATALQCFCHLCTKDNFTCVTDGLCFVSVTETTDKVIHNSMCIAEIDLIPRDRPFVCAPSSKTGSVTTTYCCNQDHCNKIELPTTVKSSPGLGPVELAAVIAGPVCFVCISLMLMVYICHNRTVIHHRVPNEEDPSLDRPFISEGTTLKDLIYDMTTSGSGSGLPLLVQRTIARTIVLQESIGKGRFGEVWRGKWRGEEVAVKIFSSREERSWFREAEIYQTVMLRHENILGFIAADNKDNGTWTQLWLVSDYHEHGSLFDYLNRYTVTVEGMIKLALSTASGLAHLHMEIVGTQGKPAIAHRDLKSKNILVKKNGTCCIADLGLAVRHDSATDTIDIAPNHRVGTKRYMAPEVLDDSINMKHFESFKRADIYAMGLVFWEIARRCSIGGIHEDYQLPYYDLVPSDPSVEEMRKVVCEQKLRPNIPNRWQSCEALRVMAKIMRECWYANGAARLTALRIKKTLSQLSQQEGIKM

[2] = target: Mitogen-activated protein kinase 14 (Homo sapiens) (UniProt Q16539); experiment: Inhibition of human P38alpha/MAPK at 10 uM in presence of 1 microM ATP
Sequence of Mitogen-activated protein kinase 14 (Homo sapiens) (Q16539 whole entry): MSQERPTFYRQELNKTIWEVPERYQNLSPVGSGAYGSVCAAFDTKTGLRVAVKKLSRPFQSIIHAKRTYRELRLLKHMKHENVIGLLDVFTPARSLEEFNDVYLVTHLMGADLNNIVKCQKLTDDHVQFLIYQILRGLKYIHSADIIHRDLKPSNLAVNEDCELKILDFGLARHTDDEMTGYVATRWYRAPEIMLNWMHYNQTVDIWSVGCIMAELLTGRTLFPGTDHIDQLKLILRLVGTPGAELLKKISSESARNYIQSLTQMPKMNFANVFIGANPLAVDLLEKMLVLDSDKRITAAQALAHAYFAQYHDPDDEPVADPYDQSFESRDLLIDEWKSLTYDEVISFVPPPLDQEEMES

TGF-beta receptor type-1 = target: T2, TGF-beta receptor type-1 (Homo sapiens, UniProt P36897); experiment: Inhibition of human ALK5 in presence of 1 microM ATP
T2 sequence (P36897 whole entry): T1 sequence (whole entry)

| SMILES | inhibition [1] | inhibition [2] | IC50 (TGF-beta receptor type-1) |
| --- | --- | --- | --- |
| COc1cc(OC)cc(-c2nnn(-c3cccc(C)n3)c2-c2ccc3nccnc3c2)c1 | 23.4% | -6.87% | – |
| Cc1cccc(-n2nnc(-c3ccccc3)c2-c2ccc3nccnc3c2)n1 | -4.94% | 31.2% | – |
| Cc1cccc(-n2nnc(-c3cc(F)cc(F)c3)c2-c2ccc3nccnc3c2)n1 | 17.4% | 40.4% | – |
| Cc1cccc(-n2nnc(Cc3ccccc3)c2-c2ccc3nccnc3c2)n1 | 80.8% | -1.94% | 4.69 µM |
| Cc1cccc(-n2nnc(CCCCO)c2-c2ccc3nccnc3c2)n1 | 20.4% | – | 50.8 µM |
| CCCCc1nnn(-c2cccc(C)n2)c1-c1ccc2nccnc2c1 | 70% | -2.52% | 7.38 µM |
| COc1ccccc1-c1nnn(-c2cccc(C)n2)c1-c1ccc2nccnc2c1 | 34.9% | 18.4% | 34.5 µM |
| Cc1cccc(-n2nnc(-c3ccc(F)cc3)c2-c2ccc3nccnc3c2)n1 | 8.19% | 30.9% | – |
| Cc1cccc(-n2nnc(CCC(C)C)c2-c2ccc3nccnc3c2)n1 | 73.1% | -5.91% | 8.6 µM |
| COc1ccc(-c2nnn(-c3cccc(C)n3)c2-c2ccc3nccnc3c2)cc1 | 0.26% | – | – |
| Cc1ccc(-c2nnn(-c3cccc(C)n3)c2-c2ccc3nccnc3c2)cc1 | 20.7% | -5.07% | – |
